“And” between values parts separate entries of the source, which are not always exact repeats. Equal entries are not always repeated. Where two headings read alike, the source gives them in different places.
Tests used:
[1] = tested on: Cytokine mRNA from T cells (PBMC); experiment: RNase protection assay of cytokine mRNA in PBMC (T cells), with or without PMA/ionomycin; details: for PMA/ionomycin-induced upregulation of TNF alpha message: PMA/ionomycin stimulation
[2] = tested on: surface TNF alpha on human T cells; experiment: Surface TNF alpha expression on T cells by FACS (gating on CD3+ cells); details: for Change in with BT/without BT: 20 mM BT; for % Positive ± SD (T cells expressing high levels of surface TNF alpha) / MFI ± SD: PMA/ionomycin; for surface TNF alpha, overall MFI: With BT 20 mM; for surface TNF alpha level: unstimulated T cells, BT alone 20 mM, single donor
[3] = tested on: surface TNF alpha on human monocytes; experiment: Surface TNF alpha expression on monocytes by FACS (CD14+ cells); type: cell-based; set-up: TNF alpha from Monocytes, With BT / change with BT versus without BT: unit not given here; details: for TNF alpha from Monocytes, With BT / change with BT versus without BT: 20 mM BT; for surface TNF alpha expression: all drugs 20 mM
Excerpt: The effect of NAC and BT, alone or in combination, on surface TNF alpha expression by stimulated or unstimulated monocytes (prepared from PBM) was examined. […] Table 6. While only a small proportion of T cells from each donor were responsive to the combination NAC/BT, the effect on surface TNF alpha expression in monocytes was significant.

[4] = tested on: Monocyte Chemokine Message levels; experiment: RNase protection assay of monocyte chemokine message levels; type: cell-based, human; details: Media + beta-alethine 20 mM; RPA phosphorimaging normalized on L32
Experimental: Monocyte expression of chemokines was also assessed in beta-alethine-treated cells (Table 3). While IP-10 expression was decreased by beta-alethine, the levels of the chemoattractants MIP-1a and IL-8 were increased slightly. Bacterial infections are contained by an inflammatory response. MIP-1a recruits macrophages, T cells and eosinophils to the infection site, and IL-8 recruits neutrophils. Therefore both of these chemokines are important in fighting pathogen-induced infections.

[5] = tested on: CD-1 mice; details: for Mortality: CD-1 mice
[6] = tested on: TNF-R I on T cells (PBMCs); experiment: TNF receptor I expression on T cells by FACS
[7] = tested on: soluble TNF alpha release from human lymphocytes; experiment: Soluble TNF alpha in supernatants by ELISA; details: Media (unstimulated); drugs 20 mM; ELISA standard curve in pg/mL, unit not given
[8] = tested on: HL60 targets; experiment: T cell-dependent cytotoxicity toward HL60 targets (MTT reduction assay)
[9] = tested on: panel of human T-cell lines; experiment: Surface TNF alpha expression on a panel of human T-cell lines; type: cell-based; details: data not shown
[10] = in vivo; details: both, CD-1, mouse, iv
[11] = BT 27 nM, no stimulation, 6 hours
[12] = BT 2.7 uM, no stimulation, 6 hours
[13] = BT 20 mM, no stimulation, 6 hours
[14] = stimulation 1 micromolar Ionomycin and 10 ng/ml PMA, 48 hrs
[15] = stimulation 1 micromolar Ionomycin and 10 ng/ml PMA, individual donors/dates
[16] = Media (no stimulation), individual donors/dates
[17] = Stimulation, individual donors/dates

Structure (SMILES): NCCC(=O)NCCSSCCNC(=O)CCN [BT, beta-alethine]
- % Change GAPDH mRNA [1, 11]: −10.95%
- % Change IFNg mRNA [1, 11]: 21.11%
- % Change LTb mRNA [1, 11]: 27.48%
- % Change TGFb1 mRNA [1, 11]: 26.69%
- % Change TNFa mRNA [1, 11]: 10.04%
- % Change TNFb mRNA [1, 11]: 42.88%
- % Change GAPDH mRNA [1, 12]: −4.78%
- % Change IFNg mRNA [1, 12]: 20.17%
- % Change LTb mRNA [1, 12]: 25.70%
- % Change TGFb1 mRNA [1, 12]: 42.15%
- % Change TNFa mRNA [1, 12]: 24.94%
- % Change TNFb mRNA [1, 12]: 220.87%
- % Change IFNg mRNA [1, 13]: 109.71% and 94.74% and 139.51%
- % Change IL-1Ra mRNA [1, 13]: 30.84%
- % Change IL-1a mRNA [1, 13]: 9.07%
- % Change IL-1b mRNA [1, 13]: 60.09%
- % Change IL-2 mRNA [1, 13]: 95.02%
- % Change IL-4 mRNA [1, 13]: 135.82%
- % Change IL-5 mRNA [1, 13]: 161.15%
- % Change IL-8 mRNA [1, 13]: 10.65%
- % Change IL-9 mRNA [1, 13]: 22.86%
- % Change IL-13 mRNA [1, 13]: 83.76%
- % Change IL-15 mRNA [1, 13]: 4.88%
- % Change LTN* mRNA [1, 13]: 58.25%
- % Change LTb mRNA [1, 13]: 117.13%
- % Change MIP-1 alpha mRNA [1, 13]: 25.98%
- % Change MIP-1 beta mRNA [1, 13]: −4.79%
- % Change RANTES mRNA [1, 13]: −2.09%
- % Change TGFb1 mRNA [1, 13]: 82.08%
- % Change TNFa mRNA [1, 13]: 168.85%
- % Change TNFb mRNA [1, 13]: 77.91%
- ratio of TNF alpha: TGF beta message (densitometry) ([1]; PMA/ionomycin + 20 mM BT (PMA/ionomycin alone 3.61)): 7.12
- PMA/ionomycin-induced upregulation of TNF alpha message ([1]; 2.7 mM BT, 6 hours): maintained
- PMA/ionomycin-induced upregulation of TNF alpha message ([1]; 20 mM BT, 6 hours): further enhanced
- ratio of TNF alpha: TGF beta message (densitometry) ([1]; media + 20 mM BT (media alone 0.092)): 1.36
- Change in with BT/without BT [2, 14]: 84.527%
- Change in with BT/without BT [2, 15]: 45.223% and 66.236% and 49.403% and 71.042% and 4.276% and 68.647% and 152.007% and 27.185% and 104.690% and 325.647%
- % Positive ± SD (T cells expressing high levels of surface TNF alpha) ([2]; Dose 2.7 mM, 16 hours): 10.86 ± .92%
- MFI ± SD ([2]; Dose 2.7 mM, 16 hours): 94.52 ± 1.83
- % Positive ± SD (T cells expressing high levels of surface TNF alpha) ([2]; Dose 20 mM, 16 hours): 24.25 ± 6.25%
- MFI ± SD ([2]; Dose 20 mM, 16 hours): 127.37 ± 12.5
- % Positive ± SD (T cells expressing high levels of surface TNF alpha) ([2]; Dose .0085 mM, 16 hours): 4.96 ± .41%
- MFI ± SD ([2]; Dose .0085 mM, 16 hours): 59.84 ± 4.08
- % Positive ± SD (T cells expressing high levels of surface TNF alpha) ([2]; Dose .027 mM, 16 hours): 5.18 ± 1.73%
- MFI ± SD ([2]; Dose .027 mM, 16 hours): 63.49 ± .28
- % Positive ± SD (T cells expressing high levels of surface TNF alpha) ([2]; Dose .085 mM, 16 hours): 8.4 ± .5%
- MFI ± SD ([2]; Dose .085 mM, 16 hours): 74.18 ± 7.98
- % Positive ± SD (T cells expressing high levels of surface TNF alpha) ([2]; Dose .27 mM, 16 hours): 7.33 ± .38%
- MFI ± SD ([2]; Dose .27 mM, 16 hours): 71.17 ± .77
- % Positive ± SD (T cells expressing high levels of surface TNF alpha) ([2]; Dose .85 mM, 16 hours): 9.38 ± 1.57%
- MFI ± SD ([2]; Dose .85 mM, 16 hours): 81.93 ± 6.33
- time for which increased surface TNF alpha expression was sustained ([2]; PMA/ionomycin-stimulated cells): over 50 hours
- surface TNF alpha expression, Time Course ([2]; Pma/iono, 6 hours, 2.7 mM): 149
- surface TNF alpha expression, Time Course ([2]; Pma/iono, 6 hours, each drug 20 mM): 112
- surface TNF alpha expression, Time Course ([2]; Pma/iono, 16 hours, 2.7 mM): 179
- surface TNF alpha expression, Time Course ([2]; Pma/iono, 16 hours, each drug 20 mM): 220
- surface TNF alpha expression, Time Course ([2]; Pma/iono, 24 hours, 2.7 mM): 208
- surface TNF alpha expression, Time Course ([2]; Pma/iono, 24 hours, each drug 20 mM): 226
- surface TNF alpha expression, Time Course ([2]; Pma/iono, 42 hours, 2.7 mM): 120
- surface TNF alpha expression, Time Course ([2]; Pma/iono, 42 hours, each drug 20 mM): 247
- surface TNF alpha expression, Time Course ([2]; Pma/iono, 68 hours, 2.7 mM): 64
- surface TNF alpha expression, Time Course ([2]; Pma/iono, 68 hours, each drug 20 mM): 174
- surface TNF alpha, overall MFI [2, 14]: 146.81
- surface TNF alpha, overall MFI [2, 15]: 164.48 and 83.65 and 123.87 and 25.93 and 48.53 and 105.59 and 435.04 and 25.17 and 508.43 and 292.59
- surface TNF alpha, overall MFI ([2]; stimulation with 1 ng PMA, individual donors): 133.13 and 25.41
- surface TNF alpha level ([2]; 15 hours post-exposure (control 25)): 75
- surface TNF alpha level ([2]; forty hours (control 25)): 100
- surface TNF alpha expression, Time Course ([2]; unstimulated, 6 hours, 2.7 mM): 22
- surface TNF alpha expression, Time Course ([2]; unstimulated, 6 hours, each drug 20 mM): 32
- surface TNF alpha expression, Time Course ([2]; unstimulated, 16 hours, 2.7 mM): 42
- surface TNF alpha expression, Time Course ([2]; unstimulated, 16 hours, each drug 20 mM): 76
- surface TNF alpha expression, Time Course ([2]; unstimulated, 24 hours, 2.7 mM): 47
- surface TNF alpha expression, Time Course ([2]; unstimulated, 24 hours, each drug 20 mM): 67
- surface TNF alpha expression, Time Course ([2]; unstimulated, 42 hours, 2.7 mM): 79
- surface TNF alpha expression, Time Course ([2]; unstimulated, 42 hours, each drug 20 mM): 101
- surface TNF alpha expression, Time Course ([2]; unstimulated, 68 hours, 2.7 mM): 30
- surface TNF alpha expression, Time Course ([2]; unstimulated, 68 hours, each drug 20 mM): 41
- TNF alpha from Monocytes, With BT ([3]; Media (no stimulation), 48 hrs): 14.22
- change with BT versus without BT ([3]; Media (no stimulation), 48 hrs): 0.07037
- TNF alpha from Monocytes, With BT [3, 16]: 124.26 and 10.53 and 24.06
- change with BT versus without BT [3, 16]: 78.87 and −44.17 and 18.58
- TNF alpha from Monocytes, With BT ([3]; Stimulation, 48 hrs): 34.59
- change with BT versus without BT ([3]; Stimulation, 48 hrs): −6.107
- TNF alpha from Monocytes, With BT [3, 17]: 71.42 and 202.15 and 41.97 and 143.51 and 87.59
- change with BT versus without BT [3, 17]: 11.54 and 249.1 and −52.59 and 126.7 and 127.7
- surface TNF alpha expression ([3]; stimulated monocytes): induced significant surface TNF alpha expression
- surface TNF alpha expression ([3]; unstimulated monocytes): not upregulated
- IL-8 message level [4]: 11,615,894
- IP-10 message level [4]: 55,214
- MIP-1 alpha message level [4]: 909,291
- MIP-1 beta message level [4]: 554,709
- gross pathology at necropsy ([5]; mouse, in vivo): No gross pathology
- Mortality ([5]; single bolus intravenous dose 67 mg/kg): 0/2
- Mortality ([5]; single bolus intravenous dose 333 mg/kg): 1/3
- Mortality ([5]; single bolus intravenous dose 667 mg/kg): 2/2
- TNF Receptor I Expression (mean fluorescent channel) ([6]; PMA/ionomycin + 20 mM BT, 20 hours): 329
- TNF Receptor I Expression (mean fluorescent channel) ([6]; PMA/ionomycin + 20 mM BT, 45 hours): 548
- TNF Receptor I Expression (mean fluorescent channel) ([6]; PMA/ionomycin + 20 mM BT, 69 hours): 489
- TNF Receptor I Expression (mean fluorescent channel) ([6]; unstimulated, 20 mM BT, 20 hours): 136
- TNF Receptor I Expression (mean fluorescent channel) ([6]; unstimulated, 20 mM BT, 45 hours): 109
- TNF Receptor I Expression (mean fluorescent channel) ([6]; unstimulated, 20 mM BT, 69 hours): 96
- Soluble TNF [7]: 29
- T cell dependent cytotoxic activity toward HL60 in the presence of neutralizing anti-TNF alpha antibodies ([8]; 20 mM BT, PMA/ionomycin stimulated, data not shown): inhibited
- T cell-Mediated Cytotoxicity, optical density at 540 nm ± SD ([8]; PMA/ionomycin-stimulated T cells, 0.85 mM, 10:1 effector:target, 24 hours): .191 ± .003
- surface TNF alpha expression [9]: induced upregulation
- LD50 at 2 weeks [10]: > 100 mg/kg
